Tests used:
[1] = tested on: DU-145 human prostate cancer cells; test: SRB cell growth inhibition assay, DU-145; type: cell-based; conditions: DU-145 cells, 72 h exposure, read-out: Cytotoxicity IC50, DU-145
Protocol: (§1) The antitumor cytotoxicity of the compounds was evaluated in vitro against […] different cancer cell lines: PC-3 and DU-145 human prostate cancer, MCF-7 and MDA-MB-231 breast carcinoma and one non-tumoral cell line, dermal human fibroblasts (DHF). A conventional colorimetric assay was set up to estimate the IC50 values, which represent the concentration of a drug that is required for 50% inhibition in vitro after 72 h of continuous exposure to the test compounds. Four serial dilutions (from 12.5 to 100 µM) for each sample were evaluated in triplicate. The results obtained from these assays are shown in Table 1 and the following general observations can be made as a result: the natural ent-labdanes derivatives 3-5 (IC50 > 100) were the least cytotoxic of the series.
(§2) The colorimetric assay using sulforhodamine B (SRB) was realized following an adaptation of the described method by Skehan et al.. Cells were seeded in 96-well microtiter plates, at5 × 10^3 cells per well in aliquots of 100 µL of DMEM/F-12 medium, and they were allowed to attach to the plate surface by growing in drug-free medium for 18 h. Afterward, compounds samples were added in aliquots (dissolved in EtOH/H2O) to achieve a final concentration of 100, 50, 25 12.5 µM. After 72 h exposure, the in vitro cytotoxicity was measured by the SRB dye assay. Cells were fixed by adding cold 50% (wt/vol) trichloroacetic acid (TCA, 25 µL) and incubating for 60 min at 4 °C. Plates were washed with deionized water and dried; SRB solution (0.1% wt/vol in 1% acetic acid, 50 µL) was added to each microtiter well and incubated for 30 min at room temperature. Unbound SRB is removed by washing with 1% acetic acid. Plates were air-dried and bound stain was solubilized with Tris base (100 µL, 10 mM). Optical densities were read on an automated spectrophotometer plate reader at a single wavelength of 540 nm. Values shown are the % viability vs. ctrl + SD, n = four independent experiments in triplicate.

[2] = tested on: MCF-7 breast carcinoma cells; test: SRB cell growth inhibition assay, MCF-7; type: cell-based, human; conditions: for IC50: Homo sapiens, MCF7, MCF-7 cells, 72 h exposure, SRB, read-out: Cytotoxicity IC50, MCF-7; for cytotoxic bioactivity against MCF-7 (in words): MCF-7 breast carcinoma
Protocol: as §1, §2

[3] = tested on: MDA-MB-231 breast carcinoma cells; test: SRB cell growth inhibition assay, MDA-MB-231; type: cell-based, human; conditions: for IC50: Homo sapiens, MDA-MB-231 cells, 72 h exposure, SRB, read-out: Cytotoxicity IC50, MDA-MB-231; for cytotoxic bioactivity against MDA-MB-231 (in words): MDA-MB-231 breast carcinoma
Protocol: as §1, §2

[4] = tested on: PC-3 human prostate cancer cells; test: SRB cell growth inhibition assay, PC-3; type: cell-based; conditions: PC-3 cells, 72 h exposure, read-out: Cytotoxicity IC50, PC-3
Protocol: as §1, §2

[5] = SRB cell growth inhibition assay, DHF (non-tumoral); type: cell-based; conditions: dermal human fibroblasts (DHF), non-tumoral cells, 72 h exposure, read-out: Cytotoxicity IC50, DHF
Protocol: as §1, §2

| Structure (SMILES) | IC50 [1] | IC50 [2] | IC50 [3] | IC50 [4] | IC50 at 72 h [5] | cytotoxic bioactivity against MCF-7 (in words) [2] | cytotoxic bioactivity against MDA-MB-231 (in words) [3] |
| --- | --- | --- | --- | --- | --- | --- | --- |
| C=C1CC[C@@H]2C(C)(C)C[C@@H](OC(C)=O)C[C@@]2(C)[C@@H]1CC/C(C)=C\CO [Compound 5] | > 100 µM | > 100 µM | > 100 µM | > 100 µM | > 100 µM | – | – |
| C=C1CCC2C(C)(C)CC(O)CC2(C)C1CCC(C)=CCc1c(OC)cc(OC)cc1OC (stereo not drawn) [Compound 10, 2β-Hydroxy-15-phenyl-(22,24,26-trimethoxy)-ent-labda-8(17),13(E)-diene] | > 100 µM | 45.6 µM | 85.9 µM | 91.2 µM | > 100 µM | showed cytotoxic bioactivity | showed cytotoxic bioactivity |
| C=C1CC[C@@H]2C(C)(C)C[C@@H](OC(C)=O)C[C@@]2(C)[C@@H]1CC/C(C)=C/Cc1cc(O)ccc1O [Compound 7] | 44.6 µM | 23.9 µM | 75.9 µM | 21.4 µM | > 100 µM | – | – |
| C=C1CC[C@@H]2C(C)(C)C[C@@H](O)C[C@@]2(C)[C@@H]1CC/C(C)=C/CO [Compound 4] | > 100 µM | 90.6 µM | > 100 µM | > 100 µM | > 100 µM | – | – |
| C=C1CC[C@@H]2C(C)(C)C[C@@H](OC(C)=O)C[C@@]2(C)[C@@H]1CC/C(C)=C/Cc1cc(OC(C)=O)ccc1OC(C)=O [Compound 9, 2β-Acetoxy-15-phenyl-(22,25-acetoxy)-ent-labda-8(17),13(E)-diene] | 62.9 µM | 41.1 µM | 33.8 µM | 64.3 µM | 72.3 µM | showed cytotoxic bioactivity | showed cytotoxic bioactivity |
| C=C1CC[C@@H]2C(C)(C)C[C@@H](OC(C)=O)C[C@@]2(C)[C@@H]1CC/C(C)=C/CO [Compound 3] | > 100 µM | > 100 µM | > 100 µM | > 100 µM | > 100 µM | – | – |
| C=C1CC[C@@H]2C(C)(C)C[C@@H](O)C[C@@]2(C)[C@@H]1CC/C(C)=C\CO [Compound 6] | 96.2 µM | 74.9 µM | 96 µM | > 100 µM | > 100 µM | – | – |
| C=C1CC[C@@H]2C(C)(C)C[C@@H](O)C[C@@]2(C)[C@@H]1CC/C(C)=C/COC(C)=O [Compound 11, 2β-Hydroxy-15-acetoxy-ent-labda-8(17),13(E)-diene] | > 100 µM | 86.9 µM | > 100 µM | 35.6 µM | > 100 µM | – | – |
| C=C1CC[C@@H]2C(C)(C)C[C@@H](O)C[C@@]2(C)[C@@H]1CC/C(C)=C/Cc1cc(O)ccc1O [Compound 8] | 37.6 µM | 34 µM | 61.8 µM | 28.2 µM | > 100 µM | – | – |
